Reference: patent US11427548B2 (Arvinas Operations, Inc., priority 2015, dated 2022)
Where two headings read alike, the source gives them in different places.

Molecular target: T1, Androgen Receptor (Homo sapiens, UniProt P10275)
T1 construct: endogenous in cells; host or cells: VCaP cells
T1 sequence (P10275 1-920): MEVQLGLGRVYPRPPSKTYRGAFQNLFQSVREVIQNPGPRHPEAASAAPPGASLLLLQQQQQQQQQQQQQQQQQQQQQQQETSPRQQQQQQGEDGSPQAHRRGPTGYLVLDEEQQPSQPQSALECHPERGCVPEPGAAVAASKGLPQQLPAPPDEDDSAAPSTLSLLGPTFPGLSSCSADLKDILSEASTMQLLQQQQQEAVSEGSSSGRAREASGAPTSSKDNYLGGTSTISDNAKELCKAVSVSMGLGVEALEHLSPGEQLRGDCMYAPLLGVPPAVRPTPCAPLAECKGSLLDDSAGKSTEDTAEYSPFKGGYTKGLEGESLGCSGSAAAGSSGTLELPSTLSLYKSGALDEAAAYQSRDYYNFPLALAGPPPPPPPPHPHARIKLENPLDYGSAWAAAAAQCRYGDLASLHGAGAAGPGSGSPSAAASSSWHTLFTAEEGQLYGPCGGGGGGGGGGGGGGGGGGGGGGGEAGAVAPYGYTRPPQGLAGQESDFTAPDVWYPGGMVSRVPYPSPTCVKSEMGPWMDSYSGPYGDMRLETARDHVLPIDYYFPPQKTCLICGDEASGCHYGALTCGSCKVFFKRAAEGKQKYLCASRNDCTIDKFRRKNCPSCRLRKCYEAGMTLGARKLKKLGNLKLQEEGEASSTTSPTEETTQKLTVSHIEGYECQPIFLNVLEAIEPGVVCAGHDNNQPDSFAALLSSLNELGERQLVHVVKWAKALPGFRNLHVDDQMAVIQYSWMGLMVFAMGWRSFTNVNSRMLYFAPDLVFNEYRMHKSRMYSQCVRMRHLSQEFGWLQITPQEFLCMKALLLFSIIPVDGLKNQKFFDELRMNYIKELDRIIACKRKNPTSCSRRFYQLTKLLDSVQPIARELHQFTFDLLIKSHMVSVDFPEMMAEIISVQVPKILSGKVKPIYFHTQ
Assay: Androgen Receptor ELISA assay (PathScan AR ELISA) in VCaP cells: AR degradation, Dmax and DC50
Type: cell-based
Summary of the method: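 After 24 h exposure of VCaP cells (charcoal-stripped serum, 0.1 nM R1881 agonist, 0.1% DMSO) to seven half-log compound concentrations, residual AR in lysates was measured by PathScan ELISA (TMB absorbance, 450 nm). Cells were plated at 30,000/well and grown at least 3 days beforehand.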

[1] = VCaP, highest percentage of Androgen Receptor degradation observed, VCaP cells (Table 32); read-out: VCaP Dmax (%)
[2] = concentration that caused 50% Androgen Receptor degradation, VCaP cells (Table 32); read-out: VCaP DC50
[3] = VCaP cells; Table 36; read-out: VCaP DC50
[4] = VCaP, VCaP cells; Table 36; read-out: VCaP Dmax (%)
[5] = VCaP cells; Table 35; read-out: VCaP DC50
[6] = VCaP, VCaP cells; Table 35; read-out: VCaP Dmax (%)

`Cc1ncoc1-c1ccc(CNC(=O)[C@@H]2C[C@@H](O)CN2C(=O)[C@@H](NC(=O)COCCCCCOc2ccc(C(=O)NC3C(C)(C)C(Oc4ccc(C#N)c(Cl)c4)C3(C)C)cc2)C(C)(C)C)cc1` (stereo partly drawn) [Example 152, (2S,4R)-1-[(2S)-3,3-dimethyl-2-(2-{[5-(4-{[trans-3-(3-chloro-4-cyanophenoxy)-2,2,4,4-tetramethylcyclobutyl]carbamoyl}phen-oxy)pentyl]oxy}acetamido)butanoyl]-4-hydroxy-N-{[4-(4-methyl-1,3-oxazol-5-yl)phenyl]methyl}pyrrolidine-2-carboxamide] was tested, and the Dmax [1] was over 71% and the DC50 [2] was under 50 nM.

Molecule `CC(C)(C)[C@H](NC(=O)COCCCCCOCCn1cc(C(=O)N[C@H]2C(C)(C)[C@H](Oc3ccc(C#N)c(Cl)c3)C2(C)C)cn1)C(=O)N1C[C@H](O)C[C@H]1C(=O)NCc1ccc(-c2cncs2)cc1` [Example 339] has a DC50 (VCaP cells; Table 34; read-out: VCaP DC50) of under 50 nM and a Dmax (VCaP, VCaP cells; Table 34; read-out: VCaP Dmax (%)) of over 71%.

`CC(C)(C)[C@H](NC(=O)COCCN1CCN(c2ccc(C(=O)N[C@H]3C(C)(C)[C@H](Oc4ccc(C#N)c(Cl)c4)C3(C)C)cn2)CC1)C(=O)N1C[C@H](O)C[C@H]1C(=O)NCc1ccc(Cl)cc1` [Example 737, N-((1r,3r)-3-(3-chloro-4-cyanophenoxy)-2,2,4,4-tetramethylcyclobutyl)-6-(4-(2-(2-(((S)-1-((2S,4R)-2-((4-chlorobenzyl)carbmaoyl)-4-hydroxypyrrolidin-1-yl)-3,3-dimethyl-1-oxobutan-2-yl)amino)-2-oxoethoxy)ethyl)pipera-zin-1-yl)nicotinamdie] showed a DC50 [3] of over 501 nM and a Dmax [4] of 26 to 50%.

`Cc1ncsc1-c1ccc(CNC(=O)[C@@H]2C[C@@H](O)CN2C(=O)[C@@H](NC(=O)COCCCOCCC(O)CCOc2ccc(N3C(=S)N(c4ccc(C#N)c(C(F)(F)F)c4)C(=O)C3(C)C)cc2)C(C)(C)C)cc1` (stereo partly drawn) [Example 13, (2S,4R)-1-[(2S)-2-[2-(3-{[5-(4-{3-[4-cyano-3-(trifluoromethyl)phenyl]-5,5-dimethyl-4-oxo-2-sulfanylideneimidazolidin-1-yl}phenoxy)-3-hydroxypentyl]oxy}propoxy)acetamido]-3,3-dimethylbutanoyl]-4-hydroxy-N-{[4-(4-methyl-1,3-thiazol-5-yl)phenyl]methyl}pyrrolidine-2-carboxamide] gave a Dmax (VCaP, read-out: VCaP Dmax (%)) of 26 to 50% and a DC50 (read-out: VCaP DC50; concentration that caused 50% Androgen Receptor degradation, VCaP cells) of under 50 nM.

With `CC(C)(C)[C@H](NC(=O)COCCCCCNc1ccc(C(=O)N[C@H]2C(C)(C)[C@H](Oc3ccc(C#N)c(Cl)c3)C2(C)C)cc1)C(=O)N1C[C@H](O)C[C@H]1C(=O)NCc1ccc(C#N)cn1` [Example 539] the DC50 [5] was under 50 nM and the Dmax [6] was 26 to 50%.

In the case of `Cc1ncsc1-c1ccc([C@H](C)NC(=O)[C@@H]2C[C@@H](O)CN2C(=O)[C@H](C(C)C)n2cc(OCC3CCN(c4ccc(C(=O)N[C@H]5C(C)(C)[C@H](Oc6ccc(C#N)c(Cl)c6)C5(C)C)cc4)CC3)cn2)cc1` [Example 437], the DC50 [5] is reported as over 501 nM.

`Cc1ncsc1-c1ccc(CNC(=O)[C@@H]2C[C@@H](O)CN2C(=O)[C@@H](NC(=O)COCCCCOc2ccc(C(=O)N[C@H]3C(C)(C)[C@H](Oc4ccc(C#N)c(C(F)(F)F)c4)C3(C)C)cc2)C(C)(C)C)cc1` [Example 165, (2S,4R)-1-[(2S)-3,3-dimethyl-2-{2-[4-(4-{[trans-3-[4-cyano-3-(trifluoromethyl)phenoxy]-2,2,4,4-tetramethylcyclobutyl]carbamoyl}phenoxy)butoxy]acetamido}butanoyl]-4-hydroxy-N-{[4-(4-methyl-1,3-thiazol-5-yl)phenyl]methyl}pyrrolidine-2-carboxamide] was tested, and the Dmax [1] was over 71% and the DC50 [2] was under 50 nM.

`Cc1ncsc1-c1ccc(CNC(=O)[C@@H]2C[C@@H](O)CN2C(=O)[C@@H](NC(=O)CNCCCCCOc2ccc(C(=O)N[C@H]3C(C)(C)[C@H](Oc4ccc(C#N)c(Cl)c4)C3(C)C)cc2)C(C)(C)C)cc1` [Example 188] showed a Dmax [1] of over 71% and a DC50 [2] of under 50 nM.

`CC(C)(C)[C@H](NC(=O)COCCCCCNc1ccc(C(=O)N[C@H]2C(C)(C)[C@H](Oc3ccc(C#N)c(Cl)c3)C2(C)C)cc1)C(=O)N1C[C@H](O)C[C@H]1C(=O)NCc1ccc(-n2nccn2)cc1` [Example 527] showed a DC50 [5] of under 50 nM and a Dmax [6] of 26 to 50%.

For `Cc1ncsc1-c1ccc([C@H](C)NC(=O)[C@@H]2C[C@@H](O)CN2C(=O)[C@@H](C(C)C)N2Cc3ccc(N4CCN(CCCc5ccc(C(=O)N[C@H]6C(C)(C)[C@H](Oc7ccc(C#N)c(Cl)c7)C6(C)C)cc5)CC4)cc3C2=O)cc1` [Example 777, (2S,4R)-1-((R)-2-(6-(4-(3-(4-(((1r,3r)-3-(3-chloro-4-cyanophenoxy)-2,2,4,4-tetramethylcyclobutyl)carbamoyl)phenyl)propyl)piperazin-1-yl)-1-oxoisoindolin-2-yl)-3-methylbutanoyl)-4-hydroxy-N-((S)-1-(4-(4-methylthiazol-5-yl)phenyl)ethyl)pyrrolidine-2-carboxamide], the DC50 [3] was over 501 nM and the Dmax (VCaP, read-out: VCaP Dmax (%)) was under 25%.

Work on `Cc1ncsc1-c1ccc([C@H](C)NC(=O)[C@@H]2C[C@H](O)CN2C(=O)[C@@H](NC(=O)COCCN2CCN(c3ccc(C(=O)N[C@H]4C(C)(C)[C@H](Oc5ccc(C#N)c(Cl)c5)C4(C)C)cn3)CC2)C(C)(C)C)cc1` (stereo in doubt) [Example 608, N-((1r,3r)-3-(3-chloro-4-cyanophenoxy)-2,2,4,4-tetramethylcyclobutyl)-6-(4-(2-(2-(((S)-1-((2S,4R)-4-hydroxy-2-(((S)-1-(4-(4-methylthiazol-5-yl)phenyl)ethyl)carbamoyl)pyrrolidin-1-yl)-3,3-dimethyl-1-oxobutan-2-yl)amino)-2-oxoethoxy)ethyl)piperazin-1-yl)nicotinamide] yielded a DC50 [3] of under 50 nM and a Dmax [4] of over 71%.

`CC(C)(C)[C@H](NC(=O)COCCCOCCCCOc1ccc(N2C(=S)N(c3ccc(C#N)c(C(F)(F)F)c3)C(=O)C2(C)C)cc1)C(=O)N1C[C@H](O)C[C@H]1C(=O)NCc1ccc(-c2cnco2)c(F)c1` [Example 367] showed a Dmax (VCaP, read-out: VCaP Dmax (%)) of 51 to 70% and a DC50 (read-out: VCaP DC50; VCaP cells; Table 34) of under 50 nM.

`CC(C)(C)[C@H](NC(=O)COCCCCOc1ccc(-c2ccc(N3C(=S)N(c4ccc(C#N)c(C(F)(F)F)c4)C(=O)C3(C)C)cc2)cc1)C(=O)N1C[C@H](O)C[C@H]1C(=O)NCc1ccc(-c2ocnc2Cl)cc1` [Example 105, (2S,4R)-N-{[4-(4-chloro-1,3-oxazol-5-yl)phenyl]methyl}-1-[(2S)-2-(2-{4-[4-(4-{3-[4-cyano-3-(trifluoromethyl)phenyl]-5,5-dimethyl-4-oxo-2-sulfanylideneimidazolidin-1-yl}phenyl)phenoxy]butoxy}acetamido)-3,3-dimethylbutanoyl]-4-hydroxypyrrolidine-2-carboxamide] was tested, and the Dmax (VCaP, read-out: VCaP Dmax (%)) was 51 to 70% and the DC50 (read-out: VCaP DC50; concentration that caused 50% Androgen Receptor degradation, VCaP cells (Table 32)) was 51 to 500 nM.

Molecule `CC(C)(C)[C@H](NC(=O)CNCCOc1ccc(-c2ccc(C(=O)N[C@H]3C(C)(C)[C@H](Oc4ccc(C#N)c(Cl)c4)C3(C)C)cc2)cc1)C(=O)N1C[C@H](O)C[C@H]1C(=O)NCc1ccc(C#N)cc1` [Example 501] has a DC50 [5] of under 50 nM and a Dmax [6] of 51 to 70%.

`Cc1ncsc1-c1ccc([C@H](C)NC(=O)[C@@H]2C[C@@H](O)CN2C(=O)[C@@H](NC(=O)CN2CCN(CCOCCN3CCN(c4ccc(C(=O)N[C@H]5C(C)(C)[C@H](Oc6ccc(C#N)c(Cl)c6)C5(C)C)cn4)CC3)CC2)C(C)(C)C)cc1` [Example 805, N-((1r,3r)-3-(3-chloro-4-cyanophenoxy)-2,2,4,4-tetramethylcyclobutyl)-6-(4-(2-(2-(4-(2-(((S)-1-((2S,4R)-4-hydroxy-2-(((S)-1-(4-(4-methylthiazol-5-yl)phenyl)ethyl)carbamoyl)pyrrolidin-1-yl)-3,3-dimethyl-1-oxobutan-2-yl)amino)-2-oxoethyl)piperazin-1-yl)ethoxy)ethyl)piperazin-1-yl)nicotinamide] showed a DC50 [3] of over 501 nM and a Dmax (VCaP, read-out: VCaP Dmax (%), VCaP cells; Table 36) of under 25%.

`CC(C)(C)[C@H](NC(=O)COCCCCCNc1ccc(C(=O)N[C@H]2C(C)(C)[C@H](Oc3ccc(C#N)c(Cl)c3)C2(C)C)cc1)C(=O)N1C[C@H](O)C[C@H]1C(=O)NCc1ccc(-c2ncccn2)cc1` [Example 535] gave a DC50 [5] of under 50 nM and a Dmax [6] of 26 to 50%.
